Test [1] has as its target Human norepinephrine transporter (NET) (Homo sapiens, UniProt P23975). The test is described as follows: Binding assay to human norepinephrine transporter (NET), [3H]-Nisoxetin. The note with it: human NET enriched membranes, 5 nM [3H]-Nisoxetin. As to the method:
Binding Assay to Human Norepinephrine Transporter (NET).
Human norepinephrine transporter (NET) enriched membranes (5 μg) were incubated with 5 nM of radiolabeled [3H]-Nisoxetin in assay buffer containing 50 mM Tris-HCl, 120 mM NaCl, 5 mM KCl, pH 7.4. NSB (non specific binding) was measured by adding 10 μM of desipramine. The binding of the test compound was measured at five different concentrations. After 60 min incubation at 4° C., binding reaction was terminated by filtering through Multiscreen GF/C (Millipore) presoaked in 0.5% polyethyleneimine in Vacuum Manifold Station, followed by 3 washes with ice-cold filtration buffer containing 50 mM Tris-HCl, 0.9% NaCl, pH 7.4. Filter plates were dried at 60° C. for 1 hour and 30 μl of scintillation cocktail were added to each well before radioactivity reading. Readings were performed in a Trilux 1450 Microbeta radioactive counter (Perkin Elmer).

Test [2] deals with Human α2δ-1 Subunit of Cav2.2 Calcium Channel (Homo sapiens, UniProt P54289). The test is described as follows: Human α2δ-1 subunit of Cav2.2 calcium channel assay, [3H]-Gabapentin binding. The settings on record: human α2δ-1 enriched membranes, 15 nM [3H]-Gabapentin. As to the method: Human α2δ-1 Subunit of Cav2.2 Calcium Channel Assay
Sequence of Human α2δ-1 Subunit of Cav2.2 Calcium Channel (P54289 25-1103): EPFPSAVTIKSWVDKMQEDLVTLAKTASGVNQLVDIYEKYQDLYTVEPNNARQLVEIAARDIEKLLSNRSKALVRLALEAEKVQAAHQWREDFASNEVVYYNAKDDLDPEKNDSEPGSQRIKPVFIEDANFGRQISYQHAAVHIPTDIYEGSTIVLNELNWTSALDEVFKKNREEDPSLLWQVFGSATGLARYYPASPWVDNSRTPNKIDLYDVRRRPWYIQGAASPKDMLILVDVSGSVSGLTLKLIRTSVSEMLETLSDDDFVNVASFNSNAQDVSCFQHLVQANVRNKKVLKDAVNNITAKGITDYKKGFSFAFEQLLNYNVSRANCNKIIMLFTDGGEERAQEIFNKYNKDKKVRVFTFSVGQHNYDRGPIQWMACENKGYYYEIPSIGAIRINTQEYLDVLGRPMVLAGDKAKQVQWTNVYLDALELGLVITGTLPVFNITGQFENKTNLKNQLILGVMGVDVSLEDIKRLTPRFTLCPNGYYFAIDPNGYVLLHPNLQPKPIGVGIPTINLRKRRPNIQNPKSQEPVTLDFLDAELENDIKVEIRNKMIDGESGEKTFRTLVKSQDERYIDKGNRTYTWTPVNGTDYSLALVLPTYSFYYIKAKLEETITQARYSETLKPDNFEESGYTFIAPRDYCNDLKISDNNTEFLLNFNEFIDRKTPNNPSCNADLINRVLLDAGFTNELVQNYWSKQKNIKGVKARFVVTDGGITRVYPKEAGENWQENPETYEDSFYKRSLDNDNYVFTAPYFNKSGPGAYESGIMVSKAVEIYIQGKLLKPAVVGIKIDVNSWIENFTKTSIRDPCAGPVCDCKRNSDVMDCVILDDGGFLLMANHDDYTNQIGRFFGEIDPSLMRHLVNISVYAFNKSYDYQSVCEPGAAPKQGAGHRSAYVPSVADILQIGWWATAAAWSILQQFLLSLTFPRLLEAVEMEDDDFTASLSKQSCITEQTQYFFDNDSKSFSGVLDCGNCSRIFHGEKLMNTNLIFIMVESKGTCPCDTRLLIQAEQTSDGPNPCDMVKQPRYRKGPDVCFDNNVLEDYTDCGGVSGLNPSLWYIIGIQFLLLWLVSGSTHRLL
Human α2δ-1 enriched membranes (2.5 μg) were incubated with 15 nM of radiolabeled [3H]-Gabapentin in assay buffer containing Hepes-KOH 10 mM, pH 7.4. NSB (non specific binding) was measured by adding 10 μM pregabalin. The binding of the test compound was measured at five different concentrations. After 60 min incubation at 27° C., binding reaction was terminated by filtering through Multiscreen GF/C (Millipore) presoaked in 0.5% polyethyleneimine in Vacuum Manifold Station, followed by 3 washes with ice-cold filtration buffer containing 50 mM Tris-HCl, pH 7.4. Filter plates were dried at 60° C. for 1 hour and 30 μl of scintillation cocktail were added to each well before radioactivity reading. Readings were performed in a Trilux 1450 Microbeta radioactive counter (Perkin Elmer).

Some results are limits rather than exact numbers.

Sequence of Human norepinephrine transporter (NET) (P23975 whole entry): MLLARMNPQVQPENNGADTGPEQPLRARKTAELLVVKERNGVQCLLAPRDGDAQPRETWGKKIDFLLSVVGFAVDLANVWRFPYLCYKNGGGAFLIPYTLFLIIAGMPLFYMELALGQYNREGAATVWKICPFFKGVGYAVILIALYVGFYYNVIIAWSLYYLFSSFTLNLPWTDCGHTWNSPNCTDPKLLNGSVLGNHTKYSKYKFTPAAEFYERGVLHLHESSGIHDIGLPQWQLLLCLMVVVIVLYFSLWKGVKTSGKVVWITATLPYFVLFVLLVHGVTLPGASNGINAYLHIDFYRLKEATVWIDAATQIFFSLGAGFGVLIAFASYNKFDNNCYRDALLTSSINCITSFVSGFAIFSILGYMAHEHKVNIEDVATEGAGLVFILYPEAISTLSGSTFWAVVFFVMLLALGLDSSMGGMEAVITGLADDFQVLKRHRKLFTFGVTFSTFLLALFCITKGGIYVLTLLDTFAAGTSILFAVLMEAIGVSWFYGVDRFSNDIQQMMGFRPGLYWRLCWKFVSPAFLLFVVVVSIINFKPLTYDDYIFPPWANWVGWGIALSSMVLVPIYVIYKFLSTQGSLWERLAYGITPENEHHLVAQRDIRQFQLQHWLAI

Consider `CNCCC(Cc1ccccc1)Oc1cccc(-n2nc3c(N(C)C)nnc(C)c3c2C)c1` (stereo not shown) [Example 38, N,N,3,4-tetramethyl-2-(3-((4-(methylamino)-1-phenylbutan-2-yl)oxy)phenyl)-2H-pyrazolo[3,4-d]pyridazin-7-amine], for which the figures for the inhibition constant (Ki) in test [1] and in test [2] were 0.1 to 0.5 µM and 0.5 to 5 µM, respectively.

As for `Cc1nnc(N(C)C)c2nn(-c3cccc(OC(CCN)c4ccccc4)c3)c(C)c12` (stereo not shown) [Example 4, 2-(3-(3-amino-1-phenylpropoxy)phenyl)-N,N,3,4-tetramethyl-2H-pyrazolo[3,4-d]pyridazin-7-amine], the inhibitory constant (Ki) (as a rule, the dissociation constant of the complex between target and ligand, obtained from inhibition or displacement) in test [1] fell in the range of 0.1 to 0.5 µM; in test [2] it was 0.5 to 5 µM.

For `CCNCCC(Oc1cccc(-n2nc3c(N(C)C)nnc(C)c3c2C)c1)c1cccc(F)c1` (stereo not shown) [Example 17, 2-(3-(3-(ethylamino)-1-(3-fluorophenyl)propoxy)phenyl)-N,N,3,4-tetramethyl-2H-pyrazolo[3,4-d]pyridazin-7-amine], the inhibition constant Ki in test [1] was not below 1 µM; in test [2] it was 0.5 to 5 µM.

For `Cc1nnc(N(C)C)c2nn(-c3cccc(OC(CN(C)C)c4ccccc4)c3)c(C)c12` (stereo not shown) [Example 37, 2-(3-(2-(dimethylamino)-1-phenylethoxy)phenyl)-N,N,3,4-tetramethyl-2H-pyrazolo[3,4-d]pyridazin-7-amine], the Ki in test [1] is 0.1 to 0.5 µM; in test [2], 0.5 to 5 µM.

As for `CNCCC(Oc1cccc(-n2nc3c(N(C)C)nnc(C)c3c2C)c1)c1ccccc1` (stereo not shown) [Example 1, N,N,3,4-Tetramethyl-2-(3-(3-(methylamino)-1-phenylpropoxy)phenyl)-2H-pyrazolo[3,4-d]pyridazin-7-amine], the inhibition constant Ki in test [1] was less than 0.1 µM; in test [2] it was 0.5 to 5 µM.

As for `CNCCC(Oc1cccc(-n2nc3c(N(C)C)nnc(C)c3c2C)c1)c1ccncc1` (stereo not shown) [Example 10, N,N,3,4-tetramethyl-2-(3-(3-(methylamino)-1-(pyridin-4-yl)propoxy)phenyl)-2H-pyrazolo[3,4-d]pyridazin-7-amine], the inhibition constant (Ki) in test [1] was less than 0.1 µM; in test [2] it was 0.5 to 5 µM.

On to `CNCC[C@H](Oc1cccc(-n2c(C)c3c(C)nnc(C)c3c2C)c1)c1cccc(F)c1` [Example 68, (S)-3-(3-Fluorophenyl)-N-methyl-3-(3-(1,4,5,7-tetramethyl-6H-pyrrolo[3,4-d]pyridazin-6-yl)phenoxy)propan-1-amine], for which the results for the Ki in test [1] and in test [2] were 0.1 to 0.5 µM and not below 5 µM, respectively.

Turning to `Cc1nnc(N(C)C)c2nn(-c3cccc(OC(CCN)c4cccnc4)c3)c(C)c12` (stereo not shown) [Example 50, 2-(3-(3-amino-1-(pyridin-3-yl)propoxy)phenyl)-N,N,3,4-tetramethyl-2H-pyrazolo[3,4-d]pyridazin-7-amine], the Ki in test [1] was not below 1 µM; in test [2], 0.5 to 5 µM.

As to `CNCCC(Oc1cccc(-n2nc3c(N(C)C)nnc(C)c3c2C)c1)c1ccc(C(N)=O)cc1` (stereo not shown) [Example 57, 4-(1-(3-(7-(dimethylamino)-3,4-dimethyl-2H-pyrazolo[3,4-d]pyridazin-2-yl)phenoxy)-3-(methylamino)propyl)benzamide], the figures for the Ki in test [1] and in test [2] were 0.1 to 0.5 µM and 0.5 to 5 µM, respectively.

Regarding `Cc1nnc(N(C)C)c2nn(-c3cccc(OC(CCN)c4cccc(F)c4)c3)c(C)c12` (stereo not shown) [Example 21, 2-(3-(3-amino-1-(3-fluorophenyl)propoxy)phenyl)-N,N,3,4-tetramethyl-2H-pyrazolo[3,4-d]pyridazin-7-amine], the figures for the Ki in test [1] and in test [2] were 0.1 to 0.5 µM and 0.5 to 5 µM, respectively.

Consider `CNCCC(Oc1cccc(-n2nc3c(NC)nnc(C)c3c2C)c1)c1ccccc1` (stereo not shown) [Example 25, N,3,4-trimethyl-2-(3-(3-(methylamino)-1-phenylpropoxy)phenyl)-2H-pyrazolo[3,4-d]pyridazin-7-amine], for which the Ki was in the range of 0.1 to 0.5 µM in test [1] and 0.5 to 5 µM in test [2].

In the case of `CNCC(Oc1cccc(-n2nc3c(N(C)C)nnc(C)c3c2C)c1)c1cccs1` (stereo not shown) [Example 40, N,N,3,4-tetramethyl-2-(3-(2-(methylamino)-1-(thiophen-2-yl)ethoxy)phenyl)-2H-pyrazolo[3,4-d]pyridazin-7-amine], the inhibition constant Ki in test [1] was in the range of 0.5 to 1 µM; in test [2], 0.5 to 5 µM.

Consider `CNCC(Oc1cccc(-n2nc3c(N(C)C)nnc(C)c3c2C)c1)c1ccccc1F` (stereo not shown) [Example 41, 2-(3-(1-(2-fluorophenyl)-2-(methylamino)ethoxy)phenyl)-N,N,3,4-tetramethyl-2H-pyrazolo[3,4-d]pyridazin-7-amine], for which the values for the inhibitory constant (Ki) in test [1] and in test [2] were 0.1 to 0.5 µM and 0.5 to 5 µM, respectively.

Take `CNCC(Oc1cccc(-n2nc3c(N(C)C)nnc(C)c3c2C)c1)c1cccnc1` (stereo not shown) [Example 45, N,N,3,4-tetramethyl-2-(3-(2-(methylamino)-1-(pyridin-3-yl)ethoxy)phenyl)-2H-pyrazolo[3,4-d]pyridazin-7-amine]: the Ki was not below 1 µM in test [1] and 0.5 to 5 µM in test [2].

In the case of `Cc1nnc(N(C)C)c2nn(-c3cccc(OC(CCNCC(F)F)c4ccccc4)c3)c(C)c12` (stereo not shown) [Example 55, 2-(3-(3-((2,2-difluoroethyl)amino)-1-phenylpropoxy)phenyl)-N,N,3,4-tetramethyl-2H-pyrazolo[3,4-d]pyridazin-7-amine], the Ki in test [1] is 0.5 to 1 µM; in test [2] it was 0.5 to 5 µM.

Turning to `CNCCC(Oc1cccc(-n2nc3c(N(C)C)nnc(C)c3c2C)c1)c1cncs1` (stereo not shown) [Example 48, N,N,3,4-tetramethyl-2-(3-(3-(methylamino)-1-(thiazol-5-yl)propoxy)phenyl)-2H-pyrazolo[3,4-d]pyridazin-7-amine], the figures for the inhibition constant (Ki) in test [1] and in test [2] were 0.5 to 1 µM and less than 0.5 µM, respectively.

As to `CNCCC(Oc1cccc(-n2nc3c(N(C)C)nnc(C)c3c2C)c1)c1ccccc1F` (stereo not shown) [Example 30, 2-(3-(1-(2-Fluorophenyl)-3-(methylamino)propoxy)phenyl)-N,N,3,4-tetramethyl-2H-pyrazolo[3,4-d]pyridazin-7-amine], the Ki in test [1] was less than 0.1 µM; in test [2], 0.5 to 5 µM.

Turning to `Cc1nnc(N(C)C)c2nn(-c3cccc(OC(CN(C)C)c4cccnc4)c3)c(C)c12` (stereo not shown) [Example 52, 2-(3-(2-(Dimethylamino)-1-(pyridin-3-yl)ethoxy)phenyl)-N,N,3,4-tetramethyl-2H-pyrazolo[3,4-d]pyridazin-7-amine], the Ki was not below 1 µM in test [1] and 0.5 to 5 µM in test [2].

Consider `CNCC[C@@H](Oc1cccc(-n2nc3c(N(C)C)nnc(C)c3c2C)c1)c1ccccc1F` [Example 62, (R)-2-(3-(1-(2-Fluorophenyl)-3-(methylamino)propoxy)phenyl)-N,N,3,4-tetramethyl-2H-pyrazolo[3,4-d]pyridazin-7-amine], for which the inhibition constant Ki in test [1] was less than 0.1 µM; in test [2], 0.5 to 5 µM.

`CNC(COc1cccc(-n2nc3c(N(C)C)nnc(C)c3c2C)c1)Cc1ccccc1` (stereo not shown) [Example 47, N,N,3,4-tetramethyl-2-(3-(2-(methylamino)-3-phenylpropoxy)phenyl)-2H-pyrazolo[3,4-d]pyridazin-7-amine]: the inhibition constant Ki is less than 0.1 µM in test [1] and less than 0.5 µM in test [2].

For `CNCC[C@@H](Oc1cccc(-n2c(C)c3c(C)nnc(C)c3c2C)c1)c1cccc(F)c1` [Example 69, (R)-3-(3-fluorophenyl)-N-methyl-3-(3-(1,4,5,7-tetramethyl-6H-pyrrolo[3,4-d]pyridazin-6-yl)phenoxy)propan-1-amine], the inhibitory constant (Ki) in test [1] is 0.1 to 0.5 µM; in test [2] it was less than 0.5 µM.

With `CNCCC(Oc1cccc(-n2nc3c(N(C)C)nnc(C)c3c2C)c1)c1ccccn1` (stereo not shown) [Example 9, N,N,3,4-tetramethyl-2-(3-(3-(methylamino)-1-(pyridin-2-yl)propoxy)phenyl)-2H-pyrazolo[3,4-d]pyridazin-7-amine], the Ki in test [1] fell in the range of 0.1 to 0.5 µM; in test [2], 0.5 to 5 µM.

For `CNCCC(Oc1cccc(-n2nc3c(NC)nnc(C)c3c2C)c1)c1ccccc1F` (stereo not shown) [Example 22, 2-(3-(1-(2-fluorophenyl)-3-(methylamino)propoxy)phenyl)-N,3,4-trimethyl-2H-pyrazolo[3,4-d]pyridazin-7-amine], the inhibition constant Ki in test [1] was less than 0.1 µM; in test [2] it was 0.5 to 5 µM.

In the case of `CNCCC(Oc1cccc(-n2c(C)c3c(C)nnc(C)c3c2C)c1)c1cccc(F)c1` (stereo not shown) [Example 67, 3-(3-fluorophenyl)-N-methyl-3-(3-(1,4,5,7-tetramethyl-6H-pyrrolo[3,4-d]pyridazin-6-yl)phenoxy)propan-1-amine], the inhibition constant (Ki) in test [1] fell in the range of 0.1 to 0.5 µM; in test [2], 0.5 to 5 µM.

For `Cc1nnc(N(C)C)c2nn(-c3cccc(OC4CNCc5ccccc54)c3)c(C)c12` (stereo not shown) [Example 16, N,N,3,4-tetramethyl-2-(3-((1,2,3,4-tetrahydroisoquinolin-4-yl)oxy)phenyl)-2H-pyrazolo[3,4-d]pyridazin-7-amine], the inhibitory constant (Ki) in test [1] was not below 1 µM; in test [2], 0.5 to 5 µM.

Regarding `CNCCC(Oc1cccc(-n2nc3c(N4CC(OC)C4)nnc(C)c3c2C)c1)c1ccccc1F` (stereo not shown) [Example 33, 3-(2-fluorophenyl)-3-(3-(7-(3-methoxyazetidin-1-yl)-3,4-dimethyl-2H-pyrazolo[3,4-d]pyridazin-2-yl)phenoxy)-N-methylpropan-1-amine], the Ki in test [1] lay in the range of 0.5 to 1 µM; in test [2], 0.5 to 5 µM.

For the origin of these results see patent US20200190081A1, “META SUBSTITUTED PHENYLPYRAZOLO- AND PHENYLPYRROLO- PYRIDAZINE DERIVATIVES HAVING MULTIMODAL ACTIVITY AGAINST PAIN” (ESTEVE PHARMACEUTICALS, S.A., priority 2016, published 2020).
